Source: patent US10757935B2, “Composition comprising a pesticide and an alkoxylated ester” (BASF SE, priority 2015, dated 2020)

How the values were obtained:
[1] = tested on: powdery mildew (Blumeria graminis f. sp. hordei); assay: Curative greenhouse trial with Epoxiconazole on barley; type: in vivo; conditions: barley leaf segments (F and F-1) on benzimidazole agar, inoculation 2 days prior to application, Epoxiconazole 5 g/ha, adjuvant 50 ml/ha, assessment 14 DAT
Method: (§1) The influence of the adjuvants was tested separately in a curative and protective greenhouse trial on barley. In each case, barley was cultivated in a substrate “Frustorder Erde” for three weeks with three plants per pot. Each treatment was replicated 14 times. The adjuvant dose rate in each treatment was 50 ml/ha. The assessment of the infection rate was conducted by a trained biologist.
(§2) The adjuvants used in the trials are di-isononanyl-adipate cyclohexanedicarboxylic acid-isononanol-diester, 1,2-cyclohexanediol-di-isononate, di-isononanyl-3EO-adipate, cyclohexanedicarboxylic acid-isononanol-3EO-diester and 1,2-cyclohexanediol-6EO-di-isononate.
An Epoxiconazole SC 250 was used. Inoculation of the leaves with powdery mildew (Blumeria graminis f. sp. hordei) was done 2 days prior to application of the Epoxiconazole formulation. From the stem, 15 leaf segments were cut off with a length of 10 cm using each the flag leaf (F) and the 2nd leaf (F-1). Altogether, the leaves of each were placed on benzimidazole agar i.e. 0.5% Agar with 40 ppm benzimidazole. The concentration of Epoxiconazole for the leaf application was 5 g/ha. Assessment was done 14 days after treatment (14 DAT) of the efficacy against powdery mildew by counting the mildew pustules per leaf on a length of 7 cm.

[2] = tested on: powdery mildew (Blumeria graminis f. sp. hordei); assay: Protective greenhouse trial with Azoxystrobin on barley; type: in vivo; conditions: barley leaf segments (F and F-1) on agar cut 4 h after application, then inoculated, Azoxystrobin 5 g/ha, adjuvant 50 ml/ha, incubation time 10 d
Method: as §1, §2
4 h after application with the equivalent of 5 g/ha Azoxystrobin, leaf segments were cut off at a length of 7 cm from the stem. 15 leaves of each the F and the F-1 leaf were placed on agar. After the inoculation with powdery mildew (Blumeria graminis f. sp. hordei), the incubation time was 10 d. The assessment of the infection rate was conducted by a trained biologist.

Compound | Powdery mildew infestation (%) [1] [%] | Powdery mildew infestation (%) [2] [%]
Fc1ccc([C@]2(Cn3cncn3)O[C@H]2c2ccccc2Cl)cc1 (racemic) [Epoxiconazole] | 33 | –
CO/C=C(/C(=O)OC)c1ccccc1Oc1cc(Oc2ccccc2C#N)ncn1 [Azoxystrobin] | – | 36
